Assays:
isolated rat aorta = test: Test A: activity against contractions induced by low K⁺ concentrations (20 mM K⁺) in the isolated rat aorta; assay type: cell-based; details: concentration reducing the 20 mM K⁺-induced contraction by 90%; rat thoracic aorta strips denuded of endothelium; read-out: Activity Test A EC₉₀
Description: The test methods used were adapted from those described by Winslow et al [Eur.J.Pharmacol., 131, 219-228 (1986)] and Karaki [J.Pharmacol. Methods, 18, 1-21 (1987)] for differentiating vaso-relaxant activity.
Test A : Activity against contractions induced by low K⁺ concentrations in the isolated rat aorta
Thoracic aorta was removed from rats and transverse strips, denuded of endothelium, were suspended in a bath containing Krebs solution. The tension was recorded and a contraction induced by addition of 20 mM K⁺ (potassium ion) to the bathing solution. The test compound was added to the bath as a solution in increasing cumulative concentration. The concentration in the bathing solution of the test compound which reduced the K⁺-induced contraction by 90% was determined and expressed in µM as the effective concentration (EC₉₀), given in Table I.

[1] = test system: histamine-induced bronchospasm; test: Histamine-induced bronchospasm in the anaesthetised guinea pig (method of Dixon and Brodie), nebulised aerosol; assay type: in vivo; details: nebulised aerosol for 1 minute, control 80
Description: (§1) In in vivo tests in the anaesthetised guinea pig, performed according to the method of Dixon W.E. and Brodie T.G., J. Physiol 29, pp 97-173 (1903), Compound BD affected histamine-induced bronchospasm and blood pressure as follows:-
(§2) A nebulised aerosol generated from an aqueous solution having a given concentration was administered for 1 minute to the anaesthetised guinea pigs.

blood pressure = test: Blood pressure in the anaesthetised guinea pig (same experiment as bronchospasm test); assay type: in vivo; details: nebulised aerosol for 1 minute, control 42
Description: as §1, §2

Molecule	EC90 (isolated rat aorta) [µM]	other results
CNC(=S)C1(c2cnc3ccccc3c2)CCCCC1=O (racemic) [Compound B, (±)-N-methyl-2-oxo-1-(3-quinolinyl)cyclohexanecarbothioamide]	0.07	
CNC(=S)[C@]1(c2cnc3ccccc3c2)CCCC/C1=N\N1CCC[C@H]1COC [Compound J, (2S)-anti-2-(methoxymethyl)-1-[2′-(3-quinolinyl)-2′-methylthiocarbamoylcyclohexylideneamino]pyrrolidine]	0.3	
CNC(=S)C1(c2cccnc2)CCCC/C1=N\OC (racemic) [Compound G, (±)-anti-N-methyl-2-methoxyimino-1-(3-pyridyl)cyclohexanecarbothioamide]	0.3	
CNC(=S)C1(c2cncc(Br)c2)CCCCC1=O (racemic) [Compound S, (±)-N-methyl-2-oxo-1-(5-bromopyrid-3-yl)cyclohexanecarbothioamide]	0.4	
CNC(=S)C1(c2cccnc2)CCCC/C1=N\OCc1ccccc1 (racemic) [Compound H, (±)-anti-N-methyl-2-benzyloxyimino-1-(3-pyridyl)cyclohexanecarbothioamide]	0.01	
(±)-cis-N-methyl-2-hydroxy-1-(3-pyridyl)cyclohexanecarbothioamide	24	
(±)-trans-N-methyl-2-hydroxy-1-(3-pyridyl)cyclohexanecarbothioamide	7.5	
CNC(=S)C1(c2ccc(Cl)nc2)CCCCC1=O (racemic) [Compound R, (±)-N-methyl-2-oxo-1-(6-chloropyrid-3-yl)cyclohexanecarbothioamide]	0.24	
CNC(=S)C1(c2cccnc2)CCC/C1=N\OCc1ccc(F)cc1 (racemic) [Compound BD, (±)-anti-N-methyl-2-(4-fluorobenzyloxyimino)-1-(3-pyridyl)cyclopentanecarbothioamide]		% maximum bronchospasm ([1]; 100µg/ml aqueous solution): 76%; % maximum bronchospasm ([1]; 300µg/ml aqueous solution): 46%; % maximum bronchospasm ([1]; 1000µg/ml aqueous solution): 22%; B.P. (blood pressure; 100µg/ml aqueous solution): 49 mmHg; B.P. (blood pressure; 300µg/ml aqueous solution): 43 mmHg; B.P. (blood pressure; 1000µg/ml aqueous solution): 40 mmHg
CNC(=S)C1(c2cccnc2)CCCCC1=O (racemic) [Compound A, (±)-N-methyl-2-oxo-1-(3-pyridyl)cyclohexanecarbothioamide]	0.8	
CCNC(=S)C1(c2cccnc2)CCCCC1=O (racemic) [T, (±)-N-ethyl-2-oxo-1-(3-pyridyl)cyclohexanecarbothioamide]	0.3	
